According to publication PMC10507085, “Pharmacological inhibition of TBK1/IKKε blunts immunopathology in a murine model of SARS-CoV-2 infection” (Nature Communications, 2023):

How the values were obtained:
Experiment in all cases: biochemical
Parameters in all cases: KINOMEscan competition binding, DNA-tagged kinase against immobilised ligand, qPCR read-out
Conditions in all cases: read-out: Percent Control
MAP2K2 = MAP2K2 (Homo sapiens, UniProt P36507)
PRKG1 = PRKG1 (Homo sapiens, UniProt Q13976)
CDK4-cyclinD1 = CDK4-cyclinD1 (Homo sapiens, UniProt P11802)
CAMK2D = CAMK2D (Homo sapiens, UniProt Q13557)
MAP4K4 = MAP4K4 (Homo sapiens, UniProt O95819)
CSNK1D = CSNK1D (Homo sapiens, UniProt P48730)
DAPK1 = DAPK1 (Homo sapiens, UniProt P53355)
CSNK1G3 = CSNK1G3 (Homo sapiens, UniProt Q9Y6M4)
CDK8 = CDK8 (Homo sapiens, UniProt P49336)
PTK6 = PTK6 (Homo sapiens, UniProt Q13882)
SRPK3 = SRPK3 (Homo sapiens, UniProt Q9UPE1)
CSF1R-autoinhibited = CSF1R-autoinhibited (Homo sapiens, UniProt P07333)
ICK = target: T1, ICK (Homo sapiens, UniProt Q9UPZ9)
T1 construct: gene CILK1

[1] = target: T2, RPS6KA5(Kin.Dom.2-C-terminal) (Homo sapiens, UniProt O75582)
T2 construct: Kin.Dom.2 C-terminal

ZAP70 = ZAP70 (Homo sapiens, UniProt P43403)
NTRK1 = NTRK1 (Homo sapiens, UniProt P04629)
SNRK = SNRK (Homo sapiens, UniProt Q9NRH2)
SIK1 = SIK1 (Homo sapiens, UniProt P57059)
[2] = target: T3, RSK3(Kin.Dom.2-C-terminal) (Homo sapiens, UniProt Q15349)
T3 construct: gene RPS6KA2; Kin.Dom.2 C-terminal

PTK6, sequence (Q13882 whole entry): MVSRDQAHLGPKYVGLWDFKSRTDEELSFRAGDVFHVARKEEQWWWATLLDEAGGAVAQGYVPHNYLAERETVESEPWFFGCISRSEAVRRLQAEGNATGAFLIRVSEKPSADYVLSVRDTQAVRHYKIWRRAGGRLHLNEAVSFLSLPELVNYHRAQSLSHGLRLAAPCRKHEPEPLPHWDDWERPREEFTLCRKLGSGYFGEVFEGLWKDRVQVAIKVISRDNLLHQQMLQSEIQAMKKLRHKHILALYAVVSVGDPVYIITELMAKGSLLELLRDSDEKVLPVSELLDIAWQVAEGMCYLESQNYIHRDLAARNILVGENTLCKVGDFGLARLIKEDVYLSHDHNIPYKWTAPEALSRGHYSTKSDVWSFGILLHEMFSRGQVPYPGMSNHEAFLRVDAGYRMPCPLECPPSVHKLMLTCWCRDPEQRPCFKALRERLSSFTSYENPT
SRPK3, sequence (Q9UPE1 whole entry): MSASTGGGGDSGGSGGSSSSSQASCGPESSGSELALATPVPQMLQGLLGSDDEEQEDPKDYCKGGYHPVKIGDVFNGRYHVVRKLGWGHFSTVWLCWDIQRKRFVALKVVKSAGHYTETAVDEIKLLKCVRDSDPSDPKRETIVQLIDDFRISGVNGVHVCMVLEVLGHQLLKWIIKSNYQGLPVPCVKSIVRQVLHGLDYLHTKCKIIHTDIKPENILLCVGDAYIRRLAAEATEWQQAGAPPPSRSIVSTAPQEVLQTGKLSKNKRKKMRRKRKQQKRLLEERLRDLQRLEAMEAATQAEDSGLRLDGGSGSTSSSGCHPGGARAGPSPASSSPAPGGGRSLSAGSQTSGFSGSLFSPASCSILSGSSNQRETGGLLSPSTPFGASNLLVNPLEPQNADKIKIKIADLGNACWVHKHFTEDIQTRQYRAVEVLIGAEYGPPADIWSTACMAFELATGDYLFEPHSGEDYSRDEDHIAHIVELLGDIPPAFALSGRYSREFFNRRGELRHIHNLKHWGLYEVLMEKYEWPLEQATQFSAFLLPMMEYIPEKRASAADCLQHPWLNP
T2 sequence (O75582 whole entry): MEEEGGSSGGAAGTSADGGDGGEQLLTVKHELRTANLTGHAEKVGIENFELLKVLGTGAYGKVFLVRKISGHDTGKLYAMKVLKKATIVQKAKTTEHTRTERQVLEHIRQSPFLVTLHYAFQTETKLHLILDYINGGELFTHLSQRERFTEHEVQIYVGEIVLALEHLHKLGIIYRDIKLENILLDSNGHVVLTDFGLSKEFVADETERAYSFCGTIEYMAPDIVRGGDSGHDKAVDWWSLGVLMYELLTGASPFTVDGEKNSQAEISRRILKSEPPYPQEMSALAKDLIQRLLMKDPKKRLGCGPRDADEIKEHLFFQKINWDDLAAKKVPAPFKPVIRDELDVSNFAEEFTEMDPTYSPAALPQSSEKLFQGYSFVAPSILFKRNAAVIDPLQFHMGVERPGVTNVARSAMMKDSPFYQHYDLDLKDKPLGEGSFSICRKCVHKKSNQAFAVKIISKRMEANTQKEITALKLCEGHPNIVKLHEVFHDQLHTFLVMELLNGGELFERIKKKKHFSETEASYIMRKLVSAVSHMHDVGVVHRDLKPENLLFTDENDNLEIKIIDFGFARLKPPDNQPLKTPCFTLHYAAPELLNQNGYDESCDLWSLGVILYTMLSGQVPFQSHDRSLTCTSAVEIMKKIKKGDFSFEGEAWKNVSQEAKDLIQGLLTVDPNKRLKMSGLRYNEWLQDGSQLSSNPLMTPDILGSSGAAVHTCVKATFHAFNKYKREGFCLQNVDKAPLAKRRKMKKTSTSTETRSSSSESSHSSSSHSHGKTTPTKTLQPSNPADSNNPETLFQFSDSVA
SNRK, sequence (Q9NRH2 whole entry): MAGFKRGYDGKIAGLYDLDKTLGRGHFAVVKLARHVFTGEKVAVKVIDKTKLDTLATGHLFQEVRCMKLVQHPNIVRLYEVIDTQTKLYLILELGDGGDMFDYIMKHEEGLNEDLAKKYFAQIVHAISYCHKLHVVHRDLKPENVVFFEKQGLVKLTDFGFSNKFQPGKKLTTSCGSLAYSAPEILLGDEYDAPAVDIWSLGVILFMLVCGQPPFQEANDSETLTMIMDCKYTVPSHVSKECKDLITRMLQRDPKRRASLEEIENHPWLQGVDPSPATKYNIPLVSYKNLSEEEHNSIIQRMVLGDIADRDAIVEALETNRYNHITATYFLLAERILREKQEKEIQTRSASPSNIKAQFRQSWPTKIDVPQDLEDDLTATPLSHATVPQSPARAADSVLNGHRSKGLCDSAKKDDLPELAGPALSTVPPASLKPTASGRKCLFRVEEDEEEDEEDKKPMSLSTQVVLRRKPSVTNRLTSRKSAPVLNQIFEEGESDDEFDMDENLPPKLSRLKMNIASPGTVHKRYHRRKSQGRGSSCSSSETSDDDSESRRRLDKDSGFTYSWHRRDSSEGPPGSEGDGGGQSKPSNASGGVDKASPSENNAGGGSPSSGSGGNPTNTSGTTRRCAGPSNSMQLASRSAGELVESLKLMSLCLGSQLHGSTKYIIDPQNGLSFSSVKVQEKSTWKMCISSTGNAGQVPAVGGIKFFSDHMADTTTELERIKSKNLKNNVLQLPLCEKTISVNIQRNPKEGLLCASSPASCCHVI
MAP4K4, sequence (O95819 whole entry): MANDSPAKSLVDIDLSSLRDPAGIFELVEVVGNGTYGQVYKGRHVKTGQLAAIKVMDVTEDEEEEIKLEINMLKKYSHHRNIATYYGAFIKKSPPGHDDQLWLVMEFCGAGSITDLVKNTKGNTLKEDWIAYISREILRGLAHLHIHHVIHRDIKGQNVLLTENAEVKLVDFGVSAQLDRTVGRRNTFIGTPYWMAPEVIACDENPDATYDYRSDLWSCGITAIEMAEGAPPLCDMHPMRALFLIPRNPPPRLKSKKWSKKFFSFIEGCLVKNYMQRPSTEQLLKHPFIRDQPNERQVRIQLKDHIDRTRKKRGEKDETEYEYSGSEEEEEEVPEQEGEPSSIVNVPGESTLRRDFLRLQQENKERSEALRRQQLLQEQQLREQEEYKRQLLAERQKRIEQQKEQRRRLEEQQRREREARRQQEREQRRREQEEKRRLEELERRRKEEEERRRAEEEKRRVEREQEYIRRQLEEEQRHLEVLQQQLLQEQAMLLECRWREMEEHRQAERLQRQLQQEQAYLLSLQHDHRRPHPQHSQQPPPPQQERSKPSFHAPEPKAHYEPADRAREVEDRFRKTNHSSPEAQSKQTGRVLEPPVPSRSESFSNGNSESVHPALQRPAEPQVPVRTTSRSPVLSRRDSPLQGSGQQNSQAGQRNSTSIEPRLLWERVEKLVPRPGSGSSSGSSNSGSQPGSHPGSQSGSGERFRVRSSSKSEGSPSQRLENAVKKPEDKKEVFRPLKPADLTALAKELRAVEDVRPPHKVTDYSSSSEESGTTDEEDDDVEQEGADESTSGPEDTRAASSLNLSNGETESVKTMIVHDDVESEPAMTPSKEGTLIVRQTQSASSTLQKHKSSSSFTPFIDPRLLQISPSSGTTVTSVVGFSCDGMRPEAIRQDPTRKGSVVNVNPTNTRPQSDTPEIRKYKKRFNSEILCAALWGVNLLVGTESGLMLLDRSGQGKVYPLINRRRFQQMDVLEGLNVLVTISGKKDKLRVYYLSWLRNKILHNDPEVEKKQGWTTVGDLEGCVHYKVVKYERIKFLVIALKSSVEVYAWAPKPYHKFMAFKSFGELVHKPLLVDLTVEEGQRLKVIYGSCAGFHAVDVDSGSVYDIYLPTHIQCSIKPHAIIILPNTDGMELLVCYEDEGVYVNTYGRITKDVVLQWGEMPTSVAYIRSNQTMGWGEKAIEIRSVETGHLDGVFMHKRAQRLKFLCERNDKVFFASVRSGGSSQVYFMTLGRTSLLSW
CDK4-cyclinD1, sequence (P11802 whole entry): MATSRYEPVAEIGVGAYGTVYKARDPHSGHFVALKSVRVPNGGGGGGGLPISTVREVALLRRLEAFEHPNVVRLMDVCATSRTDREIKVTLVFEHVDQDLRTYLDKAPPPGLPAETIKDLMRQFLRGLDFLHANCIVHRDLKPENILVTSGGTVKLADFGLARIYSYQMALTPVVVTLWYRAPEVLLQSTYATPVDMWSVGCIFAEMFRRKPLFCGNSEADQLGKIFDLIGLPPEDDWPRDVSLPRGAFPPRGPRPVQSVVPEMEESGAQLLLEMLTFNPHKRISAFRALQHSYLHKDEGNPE
CDK4-cyclinD1, sequence (P24385 whole entry partner): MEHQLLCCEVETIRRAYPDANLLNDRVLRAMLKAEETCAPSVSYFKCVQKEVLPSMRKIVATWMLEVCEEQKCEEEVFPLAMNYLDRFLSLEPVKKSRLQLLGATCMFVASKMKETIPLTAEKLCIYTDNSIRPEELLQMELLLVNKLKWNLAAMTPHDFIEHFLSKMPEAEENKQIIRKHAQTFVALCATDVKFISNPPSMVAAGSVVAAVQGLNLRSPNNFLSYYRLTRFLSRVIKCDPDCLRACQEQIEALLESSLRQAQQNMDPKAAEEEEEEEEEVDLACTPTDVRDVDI
MAP2K2, sequence (P36507 whole entry): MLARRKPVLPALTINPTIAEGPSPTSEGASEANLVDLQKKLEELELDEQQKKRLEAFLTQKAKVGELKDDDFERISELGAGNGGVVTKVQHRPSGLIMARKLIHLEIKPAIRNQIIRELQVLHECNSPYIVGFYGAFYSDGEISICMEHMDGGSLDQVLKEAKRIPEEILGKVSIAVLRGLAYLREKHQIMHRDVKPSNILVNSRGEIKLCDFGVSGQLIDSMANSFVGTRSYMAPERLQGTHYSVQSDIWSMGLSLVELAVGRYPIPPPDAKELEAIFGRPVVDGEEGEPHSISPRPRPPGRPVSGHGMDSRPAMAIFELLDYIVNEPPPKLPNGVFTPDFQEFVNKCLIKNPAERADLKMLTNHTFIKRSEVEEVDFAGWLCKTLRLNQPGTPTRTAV

SMILES: Oc1ccc(C2=Cc3ccc(O)cc3OC2)cc1 [compound 1, idronoxil]
- remaining binding at 10 µM (MAP2K2): 79%
- remaining binding at 10 µM (PRKG1): 74%
- remaining binding at 10 µM (CDK4-cyclinD1): 94%
- remaining binding at 10 µM (CAMK2D): 84%
- remaining binding at 10 µM (MAP4K4): 47%
- remaining binding at 10 µM (CSNK1D): 58%
- remaining binding at 10 µM (DAPK1): 53%
- remaining binding at 10 µM (CSNK1G3): 100%
- remaining binding at 10 µM (CDK8): 58%
- remaining binding at 10 µM (PTK6): 100%
- remaining binding at 10 µM (SRPK3): 94%
- remaining binding at 10 µM (CSF1R-autoinhibited): 67%
- remaining binding at 10 µM (ICK): 100%
- remaining binding at 10 µM [1]: 100%
- remaining binding at 10 µM (ZAP70): 78%
- remaining binding at 10 µM (NTRK1): 91%
- remaining binding at 10 µM (SNRK): 81%
- remaining binding at 10 µM (SIK1): 97%
- remaining binding at 10 µM [2]: 75%
